Laboratory results as given in ChEMBL document CHEMBL5614382, “Discovery of a new 1-(phenylsulfonyl)-1H-indole derivative targeting the EphA2 receptor with antiproliferative activity on U251 glioblastoma cell line” (Eur J Med Chem, 2024).
Calls of active or inactive are those of the source. The rule behind the calls is not given here.

How the values were obtained:
[1] = target: Ephrin type-A receptor 2 (Homo sapiens) (UniProt P29317); assay: Antagonist activity at EphA2 in human U-251 cells assessed as inhibition of EphA2 phosphorylation at 10 to 30 uM preincubated for 20 mins followed by ephrin-A1-Fc addition and measured after 10 mins by ELISA assay; format: cell-based; conditions: filed as antagonist, dose 10-30 µM, time 30.0 min
Chain of Ephrin type-A receptor 2 (Homo sapiens) (P29317 whole entry): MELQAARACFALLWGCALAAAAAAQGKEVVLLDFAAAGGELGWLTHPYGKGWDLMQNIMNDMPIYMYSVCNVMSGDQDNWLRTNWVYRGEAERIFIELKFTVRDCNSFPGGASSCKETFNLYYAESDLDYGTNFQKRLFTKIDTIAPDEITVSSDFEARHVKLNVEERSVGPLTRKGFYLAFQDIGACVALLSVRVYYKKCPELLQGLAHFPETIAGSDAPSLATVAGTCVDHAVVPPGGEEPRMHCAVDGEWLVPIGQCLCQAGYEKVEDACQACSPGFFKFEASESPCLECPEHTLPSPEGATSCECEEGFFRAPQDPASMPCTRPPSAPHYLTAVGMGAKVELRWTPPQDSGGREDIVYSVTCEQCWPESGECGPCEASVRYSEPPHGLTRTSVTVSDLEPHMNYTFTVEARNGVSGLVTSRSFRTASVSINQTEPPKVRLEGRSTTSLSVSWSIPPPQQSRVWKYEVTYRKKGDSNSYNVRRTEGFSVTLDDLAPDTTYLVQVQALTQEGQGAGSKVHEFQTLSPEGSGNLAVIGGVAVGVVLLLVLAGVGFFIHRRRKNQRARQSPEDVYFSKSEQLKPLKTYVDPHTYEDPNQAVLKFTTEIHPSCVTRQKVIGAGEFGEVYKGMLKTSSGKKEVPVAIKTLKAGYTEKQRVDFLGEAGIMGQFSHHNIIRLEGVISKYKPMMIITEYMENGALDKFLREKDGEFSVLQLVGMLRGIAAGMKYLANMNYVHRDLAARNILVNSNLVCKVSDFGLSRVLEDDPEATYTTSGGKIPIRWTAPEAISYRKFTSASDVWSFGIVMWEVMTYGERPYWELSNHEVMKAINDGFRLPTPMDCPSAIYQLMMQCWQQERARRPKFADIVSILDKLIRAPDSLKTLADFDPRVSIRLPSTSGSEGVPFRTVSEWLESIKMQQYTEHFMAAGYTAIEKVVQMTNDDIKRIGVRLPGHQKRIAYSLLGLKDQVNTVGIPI

[2] = target: T1, Ephrin type-A receptor 8 (Mus musculus, UniProt O09127); assay: Displacement of biotinylated Fc-tagged ephrin-A1 from recombinant N/C-terminal 6-his tagged mouse EphA8 (Gly27 to Arg540 residues) preincubated for 1 hr followed by ephrin-A1-Fc addition and measured after 4 to 5 hrs by ELISA assay
T1 sequence (O09127 whole entry): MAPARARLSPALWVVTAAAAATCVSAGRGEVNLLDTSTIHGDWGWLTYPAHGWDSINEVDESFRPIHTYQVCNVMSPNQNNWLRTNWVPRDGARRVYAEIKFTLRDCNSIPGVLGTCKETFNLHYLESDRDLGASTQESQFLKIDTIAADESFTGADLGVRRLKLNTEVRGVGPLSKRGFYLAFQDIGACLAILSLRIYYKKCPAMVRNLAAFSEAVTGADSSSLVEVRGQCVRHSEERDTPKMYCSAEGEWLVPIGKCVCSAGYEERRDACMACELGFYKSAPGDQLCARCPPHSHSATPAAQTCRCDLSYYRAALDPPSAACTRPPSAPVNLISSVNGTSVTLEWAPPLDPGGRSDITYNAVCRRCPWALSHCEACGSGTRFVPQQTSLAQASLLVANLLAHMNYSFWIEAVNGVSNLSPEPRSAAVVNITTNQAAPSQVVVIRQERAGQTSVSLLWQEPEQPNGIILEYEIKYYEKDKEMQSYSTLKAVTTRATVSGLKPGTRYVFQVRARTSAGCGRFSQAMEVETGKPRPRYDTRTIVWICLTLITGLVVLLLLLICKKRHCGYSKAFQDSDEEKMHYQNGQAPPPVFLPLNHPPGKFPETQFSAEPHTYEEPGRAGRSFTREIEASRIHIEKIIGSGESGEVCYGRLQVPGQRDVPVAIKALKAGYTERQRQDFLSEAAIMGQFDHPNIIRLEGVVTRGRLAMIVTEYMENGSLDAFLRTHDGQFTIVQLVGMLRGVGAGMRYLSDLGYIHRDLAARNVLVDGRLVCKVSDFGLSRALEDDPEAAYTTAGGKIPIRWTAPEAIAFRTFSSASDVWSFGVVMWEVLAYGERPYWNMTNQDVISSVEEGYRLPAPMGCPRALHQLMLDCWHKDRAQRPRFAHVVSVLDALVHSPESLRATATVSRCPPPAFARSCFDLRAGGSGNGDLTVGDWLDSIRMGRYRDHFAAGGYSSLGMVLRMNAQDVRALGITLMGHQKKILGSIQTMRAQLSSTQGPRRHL

[3] = test system: U-251; assay: Antiproliferative activity against human U-251 cells assessed as reduction in cell viability at 30 uM measured after 72 hrs by Celltiter-glo ATP based assay; format: functional
[4] = test system: LOUCY; assay: Antiproliferative activity against human LOUCY cells harbouring EPHA2 knockout assessed as reduction in cell viability at 1 to 10 uM measured after 72 hrs by Celltiter-glo ATP based assay; format: functional; conditions: dose 1-10 µM
[5] = target: T2, Ephrin type-B receptor 2 (Mus musculus, UniProt P54763); assay: Displacement of biotinylated Fc-tagged ephrin-B1 from recombinant N/C-terminal 6-his tagged mouse EphB2 (Val27 to Lys548 residues) preincubated for 1 hr followed by ephrin-B1-Fc addition and measured after 4 to 5 hrs by ELISA assay
T2 sequence (P54763 whole entry): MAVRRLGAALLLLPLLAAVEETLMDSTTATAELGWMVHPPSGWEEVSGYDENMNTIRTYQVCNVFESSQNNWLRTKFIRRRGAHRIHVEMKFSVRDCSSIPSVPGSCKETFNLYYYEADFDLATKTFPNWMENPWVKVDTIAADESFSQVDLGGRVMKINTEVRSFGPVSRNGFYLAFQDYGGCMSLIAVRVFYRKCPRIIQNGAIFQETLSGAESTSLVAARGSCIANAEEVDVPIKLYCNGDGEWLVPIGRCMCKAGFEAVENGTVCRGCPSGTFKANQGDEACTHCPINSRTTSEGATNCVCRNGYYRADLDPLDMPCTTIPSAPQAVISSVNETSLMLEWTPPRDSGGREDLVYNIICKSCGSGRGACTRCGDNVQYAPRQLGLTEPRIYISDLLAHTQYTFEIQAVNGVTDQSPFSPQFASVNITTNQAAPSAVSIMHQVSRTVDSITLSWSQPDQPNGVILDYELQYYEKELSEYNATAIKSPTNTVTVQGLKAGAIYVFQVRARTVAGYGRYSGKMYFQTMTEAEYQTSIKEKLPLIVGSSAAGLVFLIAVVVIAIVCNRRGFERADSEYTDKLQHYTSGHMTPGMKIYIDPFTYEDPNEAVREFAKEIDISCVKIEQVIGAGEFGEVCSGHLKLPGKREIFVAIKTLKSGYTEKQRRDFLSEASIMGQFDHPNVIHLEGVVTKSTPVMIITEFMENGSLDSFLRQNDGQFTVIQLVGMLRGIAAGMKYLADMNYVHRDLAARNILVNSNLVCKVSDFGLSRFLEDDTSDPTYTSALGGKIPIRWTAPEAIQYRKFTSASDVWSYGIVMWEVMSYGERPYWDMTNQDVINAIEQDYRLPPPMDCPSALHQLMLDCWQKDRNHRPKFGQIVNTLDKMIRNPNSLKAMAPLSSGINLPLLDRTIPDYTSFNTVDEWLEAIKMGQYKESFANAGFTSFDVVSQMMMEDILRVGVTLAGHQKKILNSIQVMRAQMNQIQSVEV

[6] = test system: U-251; assay: Effect on EphA2 protein level in human U-251 cells in presence of ephrin-A1 at 30 uM incubated for 4 hrs by ELISA assay; format: functional, cell-based
[7] = target: T3, Ephrin type-A receptor 2 (Mus musculus, UniProt Q03145); assay: Displacement of biotinylated Fc-tagged ephrin-A1 from C/N-terminal 6-His tag mouse recombinant EphA2 (Ala22 to Ala535 residues) assessed as inhibition constant preincubated for 1 hr followed by ephrin-A1-Fc addition and measured after 4 to 5 hrs by ELISA assay
T3 sequence (Q03145 whole entry): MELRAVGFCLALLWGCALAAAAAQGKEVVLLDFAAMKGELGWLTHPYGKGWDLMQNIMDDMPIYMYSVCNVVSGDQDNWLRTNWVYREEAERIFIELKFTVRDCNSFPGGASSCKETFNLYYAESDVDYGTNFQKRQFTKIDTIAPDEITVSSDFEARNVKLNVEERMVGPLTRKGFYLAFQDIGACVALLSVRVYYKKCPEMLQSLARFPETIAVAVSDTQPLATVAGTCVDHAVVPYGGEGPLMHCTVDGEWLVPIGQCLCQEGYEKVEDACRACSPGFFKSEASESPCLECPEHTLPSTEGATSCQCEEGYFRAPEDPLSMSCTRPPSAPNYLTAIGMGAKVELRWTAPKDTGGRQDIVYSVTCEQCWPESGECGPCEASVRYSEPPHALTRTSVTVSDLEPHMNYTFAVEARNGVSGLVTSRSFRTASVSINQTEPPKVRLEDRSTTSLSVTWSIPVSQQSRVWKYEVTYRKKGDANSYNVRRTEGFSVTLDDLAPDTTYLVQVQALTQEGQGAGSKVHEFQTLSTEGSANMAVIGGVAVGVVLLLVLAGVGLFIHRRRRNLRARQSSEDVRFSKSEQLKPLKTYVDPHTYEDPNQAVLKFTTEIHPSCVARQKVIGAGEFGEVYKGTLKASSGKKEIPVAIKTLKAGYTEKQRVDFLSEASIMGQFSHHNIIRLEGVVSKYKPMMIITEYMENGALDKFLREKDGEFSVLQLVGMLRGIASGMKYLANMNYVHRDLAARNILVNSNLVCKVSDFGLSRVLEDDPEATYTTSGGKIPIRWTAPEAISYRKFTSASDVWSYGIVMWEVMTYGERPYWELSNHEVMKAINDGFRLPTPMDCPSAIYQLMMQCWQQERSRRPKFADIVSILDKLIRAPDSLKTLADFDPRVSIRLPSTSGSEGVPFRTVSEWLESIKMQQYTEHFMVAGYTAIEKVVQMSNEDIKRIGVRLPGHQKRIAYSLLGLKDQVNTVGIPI

[8] = target: T3, Ephrin type-A receptor 2; assay: Displacement of biotinylated Fc-tagged ephrin-A1 from C/N-terminal 6-His tagged mouse recombinant EphA2 (Ala22 to Ala535 residues) preincubated for 1 hr followed by ephrin-A1-Fc addition and measured after 4 to 5 hrs by ELISA assay
[9] = test system: U-251; assay: Antiproliferative activity against human U-251 cells assessed as increase in cell death at 30 uM measured after 48 hrs by MTT assay; format: functional, cell-based
[10] = target: Ephrin type-A receptor 2 (Homo sapiens) (UniProt P29317); assay: Induction of EphA2 phosphorylation in human U-251 cells; format: cell-based
[11] = test system: LOUCY; assay: Antiproliferative activity against human LOUCY cells assessed as reduction in cell viability at 30 uM measured after 72 hrs by Celltiter-glo ATP based assay; format: functional
[12] = test system: U-251; assay: Antiproliferative activity against human U-251 cells assessed as inhibition of cell growth at 10 uM measured after 72 hrs by MTT assay; format: functional, cell-based

| Activity [1] | Activity [10] | SMILES | IC50 [2] [µM] | Activity [3] | Activity [4] | IC50 [5] [µM] | Activity [6] | Ki [7] [µM] | IC50 [8] [µM] | Activity [9] | Activity [11] | Activity [12] |
| --- | --- | --- | --- | --- | --- | --- | --- | --- | --- | --- | --- | --- |
| Active | inactive | C[C@H](CCC(=O)N[C@H](CC(=O)O)Cc1cn(S(=O)(=O)c2ccc(C(F)(F)F)cc2)c2ccccc12)[C@H]1CC[C@H]2[C@@H]3CC=C4C[C@@H](O)CC[C@]4(C)[C@H]3CC[C@]12C | 13 | Active | inactive | > 30 | inactive | 2.8 | 2.6 | Active | Active | Active |
| – | – | C[C@H](CCC(=O)N[C@H](CC(=O)O)Cc1c[nH]c2ccccc12)[C@H]1CC[C@H]2[C@@H]3CC=C4C[C@@H](O)CC[C@]4(C)[C@H]3CC[C@]12C | 1.8 | – | – | – | – | – | – | – | – | – |
| – | – | C[C@H](CCC(=O)N[C@H](CC(=O)O)Cc1cn(S(=O)(=O)c2ccccc2)c2ccccc12)[C@H]1CC[C@H]2[C@@H]3CC=C4C[C@@H](O)CC[C@]4(C)[C@H]3CC[C@]12C | 5.5 | – | – | > 30 | – | 2.2 | 8.1 | – | – | – |
